Measured values from patent US20250145603A1, “CRYSTAL FORMS OF AN ANTI-RSV AGENT” (Enanta Pharmaceuticals, Inc., priority 2023, published 2025).
In brackets after ≈: the same amount, converted by molar mass. Entries after “also recorded” stand apart in the source; their conditions may differ.

Key:
[1] = Hygroscopicity by DVS (Dynamic Vapor Sorption); format: physicochemical
[2] = Physical stability and conversion of solid forms (polymorph screen)
[3] = Solubility of Form A in water; format: physicochemical
[4] = Solubility of Form A in organic solvents; format: physicochemical

## O=C1Nc2ccccc2C(c2ccccc2)=N[C@@H]1Nc1nnc(-c2ncc(C(F)(F)F)cc2N2CCOCC2)o1 [Amorphous]
[1]
  hygroscopicity: Appeared non-hygroscopic
[2]
  conversion to another solid form: Crystallizes to A

## O=C1Nc2ccccc2C(c2ccccc2)=N[C@@H]1Nc1nnc(-c2ncc(C(F)(F)F)cc2N2CCOCC2)o1 [Form A]
[1]
  hygroscopicity: not hygroscopic; also recorded: Anhydrous/unsolvated, non-hygroscopic
[1]; DVS, adsorption to 95% RH
  weight gain during adsorption: 0.1 wt %
[1]; DVS, desorption to 5% RH
  moisture loss on desorption: losing all of the gained moisture
[3]; aqueous buffer, from pH 4-8
  solubility: ~2 µg/mL (≈ 3.64 µM)
[3]; simulated gastric fluid, at pH 1
  solubility: 13.3 µg/mL (≈ 24.2 µM)
[4]; alcohols, ethyl acetate, acetonitrile
  solubility in organic solvents: relatively poor solubility
[4]; dichloromethane, 1,4-dioxane, tetrahydrofuran, acetone
  solubility in organic solvents: highly soluble

## O=C1Nc2ccccc2C(c2ccccc2)=N[C@@H]1Nc1nnc(-c2ncc(C(F)(F)F)cc2N2CCOCC2)o1 [Form D]
[2]
  conversion to another solid form: converts to Form F upon air drying

## O=C1Nc2ccccc2C(c2ccccc2)=N[C@@H]1Nc1nnc(-c2ncc(C(F)(F)F)cc2N2CCOCC2)o1 [Form F]
[2]
  conversion to another solid form: Converts to G in ethyl acetate

## O=C1Nc2ccccc2C(c2ccccc2)=N[C@@H]1Nc1nnc(-c2ncc(C(F)(F)F)cc2N2CCOCC2)o1 [Form G]
[2]
  physical stability of solid form: physically stable at ambient temperature

## O=C1Nc2ccccc2C(c2ccccc2)=N[C@@H]1Nc1nnc(-c2ncc(C(F)(F)F)cc2N2CCOCC2)o1 [Material C]
[2]
  conversion to another solid form: desolvate readily to Form A; also recorded: Likely converts to A on drying
